Results published in patent publication US12201638B2, “Pharmaceutical compositions comprising (2S)-n-{(1S)-1-cyano-2-[4-(3-methyl-2-oxo-2,3-dihydro-1,3-benzoxazol-5-yl)phenyl]ethyl}-1,4-oxazepane-2-carboxamide” (ASTRAZENECA AB, priority 2018, dated 2025).

Assay: Excipient compatibility: accelerated stability of Compound A tablets (degradation by chromatography)
Type: physicochemical
Conditions: stored at 50/75 for 45 days
Description: Excipient compatibility experiments were designed as linear D-optimal designs with qualitative factors of two or more levels. The formulations used in these experiments can be directly compressed into tablets. For dry processing, three factors were evaluated, namely binary filler combination, choice of disintegrant and choice of lubricant. In the experimental design shown below (see Table 3) the effect of an HPMC-based film coat as well as the addition of colloidal silicon dioxide was evaluated using repeat corners.
Pure drug substance was included as a reference in all conditions.
This is shown in FIG. 2, where tablets stored at 50/75 for 45 days are compared with neat drug substance stored in identical conditions as well as a freshly prepared standard solution from the same drug substance batch. The chromatograms are stacked in order of degradation (and slightly shifted for clarity).
However, the general trends from the other conditions could still be seen. […] Based on this, 70/XX data was omitted from the shelf life prediction model.
Five different peaks were monitored at five different conditions. However, as discussed above, the 70/XX condition was excluded based on a probable conversion to Form B. Overall, Compound A in tablets containing glyceryl behenate appears to degrade to a slightly lesser degree than magnesium stearate.

Degradation (overlaid chromatograms, FIG. 2): almost no difference
SMILES: Cn1c(=O)oc2ccc(-c3ccc(C[C@@H](C#N)NC(=O)[C@@H]4CNCCCO4)cc3)cc21 [Compound A, (2S)-N-{(1S)-1-cyano-2-[4-(3-methyl-2-oxo-2,3-dihydro-1,3-benzoxazol-5-yl)phenyl]ethyl}-1,4-oxazepane-2-carboxamide]
